One assay concerns the target activated p38 (Homo sapiens, UniProt Q16539). The experiment in a line: Inhibition of phosphorylation of EGF receptor peptide ("kinase"). The class given is biochemical. Particulars: inhibition of phosphorylation of EGF receptor peptide by activated p38. The protocol:
This assay was carried out in the presence of 10 mM MgCl2, 25 mM β-glycerophosphate, 10% glycerol and 100 mM HEPES buffer at pH 7.6. […] The stock solution was aliquotted into vials. A fixed volume of DMSO or inhibitor in DMSO (final concentration of DMSO in reaction was 5%) was introduced to each vial, mixed and incubated for 15 minutes at room temperature. EGF receptor peptide, […], a phosphoryl acceptor in p38-catalyzed kinase reaction (1), was added to each vial to a final concentration of 200 μM. The kinase reaction was initiated with ATP (100 μM) and the vials were incubated at 30° C. After 30 minutes, the reactions were quenched with equal volume of 10% trifluoroacetic acid (TFA).
The phosphorylated peptide was quantified by HPLC analysis. Separation of phosphorylated peptide from the unphosphorylated peptide was achieved on a reverse phase column (Deltapak, 5 μm, C18 100D, part no. 011795) with a binary gradient of water and acteonitrile, each containing 0.1% TFA.

The subject of assay [1] is IL-1 production in LPS-stimulated PBMCs. The experiment in a line: Inhibition of IL-1 production in LPS-stimulated PBMCs ("cell"). It counts as cell-based, human. Particulars: Homo sapiens, PBMC. The protocol:
(§1) Inhibitors were serially diluted in DMSO from a 20 mM stock. At least 6 serial dilutions were prepared. Then 4× inhibitor stocks were prepared by adding 4 μl of an inhibitor dilution to 1 ml of RPMI1640 medium/10% fetal bovine serum. The 4× inhibitor stocks contained inhibitor at concentrations of 80 μM, 32 μM, 12.8 μM, 5.12 μM, 2.048 μM, 0.819 μM, 0.328 μM, 0.131 μM, 0.052 μM, 0.021 μM etc. The 4× inhibitor stocks were pre-warmed at 37° C. until use.
(§2) Fresh human blood buffy cells were separated from other cells in a Vacutainer CPT from Becton & Dickinson (containing 4 ml blood and enough DPBS without Mg^2+/Ca^2+ to fill the tube) by centrifugation at 1500×g for 15 min. Peripheral blood mononuclear cells (PBMCs), located on top of the gradient in the Vacutainer, were removed and washed twice with RPMI1640 medium/10% fetal bovine serum. PBMCs were collected by centrifugation at 500×g for 10 min. The total cell number was determined using a Neubauer Cell Chamber and the cells were adjusted to a concentration of 4.8×10^6 cells/ml in cell culture medium (RPMI1640 supplemented with 10% fetal bovine serum).
(§3) We placed 100 μl of cell suspension or whole blood in each well of a 96-well cell culture plate. Then we added 50 μl of the 4× inhibitor stock to the cells. Finally, we added 50 μl of a lipopolysaccharide (LPS) working stock solution (16 ng/ml in cell culture medium) to give a final concentration of 4 ng/ml LPS in the assay. The total assay volume of the vehicle control was also adjusted to 200 μl by adding 50 μl cell culture medium. The PBMC cells or whole blood were then incubated overnight (for 12–15 hours) at 37° C./5% CO2 in a humidified atmosphere.
(§4) The next day the cells were mixed on a shaker for 3–5 minutes before centrifugation at 500×g for 5 minutes. Cell culture supernatants were harvested and analyzed by ELISA for levels of IL-1b (R & D Systems, Quantikine kits, #DBL50), TNF-α (BioSource, #KHC3012), IL-6 (Endogen, #EH2-IL6) and IL-8 (Endogen, #EH2-IL8) according to the instructions of the manufacturer. The ELISA data were used to generate dose-response curves from which IC50 values were derived.

The test system of assay [2] is TNF production in LPS-stimulated PBMCs. The experiment in a line: Inhibition of TNF production in LPS-stimulated PBMCs ("cell"). It counts as cell-based, human. Particulars: Homo sapiens, PBMC. The protocol:
as §1, §2, §3, §4

Chain of activated p38 (Q16539 whole entry): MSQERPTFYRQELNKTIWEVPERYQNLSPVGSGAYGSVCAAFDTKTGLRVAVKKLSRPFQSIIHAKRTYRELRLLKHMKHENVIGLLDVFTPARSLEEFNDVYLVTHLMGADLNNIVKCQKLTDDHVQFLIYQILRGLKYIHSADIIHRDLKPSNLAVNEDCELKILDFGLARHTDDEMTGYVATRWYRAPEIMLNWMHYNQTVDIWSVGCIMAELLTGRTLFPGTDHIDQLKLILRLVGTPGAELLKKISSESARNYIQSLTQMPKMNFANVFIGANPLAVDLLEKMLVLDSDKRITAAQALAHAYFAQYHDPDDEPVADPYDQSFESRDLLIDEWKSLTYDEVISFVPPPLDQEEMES

What is called IC50 is the point on the concentration scale where inhibition reaches its midpoint. Lower therefore signals inhibition by little substance. Turning to `Cc1ccc(Sc2ccc3c(-c4c(Cl)cccc4Cl)c(=O)ncn3n2)cc1C` [Compound 19], the IC50 is ≥ 1000 nM against activated p38, ≥ 500 nM in assay [1] and ≥ 500 nM in assay [2].

On to `CCc1ccccc1Sc1ccc2c(-c3c(Cl)cccc3Cl)c(=O)ncn2n1` [Compound 20], for which the concentration for half-maximal inhibition (IC50) against activated p38 was 100 to 1000 nM; in assay [1] it was ≥ 500 nM; in assay [2], ≥ 500 nM.

On to `O=c1ncn2nc(Sc3cccc(F)c3)ccc2c1-c1c(Cl)cccc1Cl` [Compound 21], for which the results for the IC50 (against activated p38; in assay [1]; in assay [2]) were 100 to 1000 nM, 100 to 500 nM and ≥ 500 nM, respectively.

Regarding `O=c1ncn2nc(Sc3ccccc3)ccc2c1-c1c(F)cccc1C(F)(F)F` [Compound 22], the IC50 at activated p38 was ≥ 1000 nM; in assay [1], ≥ 500 nM; in assay [2] it was ≥ 500 nM.

As for `O=c1ncn2nc(Sc3cccc(Cl)c3)ccc2c1-c1c(Cl)cccc1Cl` [Compound 25], the IC50 against activated p38 was 100 to 1000 nM; in assay [1], 100 to 500 nM; in assay [2], ≥ 500 nM.

In the case of `Cc1cc(Cl)ccc1Sc1ccc2c(-c3c(Cl)cccc3Cl)c(=O)ncn2n1` [Compound 28], the figures for the half-inhibitory concentration (IC50) (against activated p38; in assay [1]; in assay [2]) were 100 to 1000 nM, 100 to 500 nM and 100 to 500 nM, respectively.

Take `O=c1ncn2nc(Sc3ccccc3Br)ccc2c1-c1c(Cl)cccc1Cl` [Compound 29]: the IC50 at activated p38 was in the range of 100 to 1000 nM; in assay [1], 100 to 500 nM; in assay [2], 100 to 500 nM.

As for `CN(C)C(=O)c1ccccc1Sc1ccc2c(-c3c(Cl)cccc3Cl)c(=O)ncn2n1` [Compound 31], the results for the concentration for half-maximal inhibition (IC50) (against activated p38; in assay [1]; in assay [2]) were ≥ 1000 nM, ≥ 500 nM and ≥ 500 nM, respectively.

Regarding `O=c1ncn2nc(Sc3ccc(F)cc3[N+](=O)[O-])ccc2c1-c1c(Cl)cccc1Cl` [Compound 34], the IC50 on activated p38 was ≥ 1000 nM; in assay [1] it was ≥ 500 nM; in assay [2] it was ≥ 500 nM.

Take `O=c1ncn2nc(Sc3ccc(F)cc3)ccc2c1-c1cc2c(cc1Cl)OCO2` [Compound 39]: the IC50 at activated p38 is 100 to 1000 nM; in assay [1] it was ≥ 500 nM; in assay [2], ≥ 500 nM.

On to `Cc1nc(=O)c(-c2c(Cl)cccc2Cl)c2ccc(Sc3ccc(F)c(Cl)c3)nn12` [Compound 40], for which the half-inhibitory concentration (IC50) against activated p38 was 100 to 1000 nM; in assay [1], 100 to 500 nM; in assay [2] it was ≥ 500 nM.

In the case of `Cc1cc(Sc2ccc3c(-c4c(Cl)cccc4Cl)c(=O)ncn3n2)c(Cl)cc1F` [Compound 41], the IC50 (against activated p38; in assay [1]; in assay [2]) was ≤ 100 nM throughout.

Consider `COc1cc(Cl)c(-c2c(=O)ncn3nc(Sc4ccc(F)cc4)ccc23)cc1OC` [Compound 43], for which the figures for the IC50 (on activated p38; in assay [1]; in assay [2]) were 100 to 1000 nM, ≥ 500 nM and ≥ 500 nM, respectively.

In the case of `Cc1cc(Cl)c(-c2c(=O)ncn3nc(Sc4ccc(F)cc4)ccc23)cc1C` [Compound 44], the values for the half-maximal inhibitory concentration (IC50) (on activated p38; in assay [1]; in assay [2]) were 100 to 1000 nM, ≥ 500 nM and ≥ 500 nM, respectively.

For `Nc1ccc(-c2c(=O)ncn3nc(Sc4ccc(F)cc4)ccc23)c(Cl)c1` [Compound 46], the values for the half-inhibitory concentration (IC50) (against activated p38; in assay [1]; in assay [2]) were 100 to 1000 nM, ≥ 500 nM and ≥ 500 nM, respectively.

Turning to `COc1ccc(-c2c(=O)ncn3nc(Sc4ccc(F)cc4)ccc23)c(Cl)c1` [Compound 47], the figures for the concentration for half-maximal inhibition (IC50) (at activated p38; in assay [1]; in assay [2]) were 100 to 1000 nM, 100 to 500 nM and ≥ 500 nM, respectively.

With `CN(C)/C=N\c1ccc(-c2c(=O)ncn3nc(Sc4ccc(F)cc4Cl)ccc23)c(Cl)c1` [Compound 48], the half-maximal inhibitory concentration (IC50) against activated p38 was 100 to 1000 nM; in assay [1] it was 100 to 500 nM; in assay [2], ≥ 500 nM.

For `NC(=O)c1ccccc1SC1=NN2CNC(=O)C(c3c(Cl)cccc3Cl)=C2C=C1` [Compound 105], the IC50 on activated p38 was 100 to 1000 nM; in assay [1], ≥ 500 nM; in assay [2], ≥ 500 nM.

As to `O=C1NCN2N=C(Sc3ccccn3)C=CC2=C1c1c(Cl)cccc1Cl` [Compound 107], the IC50 at activated p38 was 100 to 1000 nM; in assay [1], ≥ 500 nM; in assay [2] it was ≥ 500 nM.

On to `O=C1NCN2C=C(Sc3ccccc3)C=CC2=C1c1c(Cl)cccc1Cl` [Compound 110], for which the half-maximal inhibitory concentration (IC50) against activated p38 was 100 to 1000 nM; in assay [1], ≥ 500 nM; in assay [2], ≥ 500 nM.

In the case of `O=C1NCN2C=C(Sc3ccc(F)cc3)C=CC2=C1c1c(Cl)cccc1Cl` [Compound 111], the half-inhibitory concentration (IC50) at activated p38 was 100 to 1000 nM; in assay [1], ≥ 500 nM; in assay [2], ≥ 500 nM.

With `N=C(N)Nc1cc(F)c(F)cc1SC1=NN2CNC(=O)C(c3c(Cl)cccc3Cl)=C2C=C1` [Compound 124], the IC50 is ≥ 1000 nM against activated p38, ≥ 500 nM in assay [1] and ≥ 500 nM in assay [2].

Turning to `Nc1cc(C(F)(F)F)ccc1SC1=NN2CNC(=O)C(c3c(Cl)cccc3Cl)=C2C=C1` [Compound 126], the 50% inhibitory concentration (IC50) is ≥ 1000 nM against activated p38, 100 to 500 nM in assay [1] and ≥ 500 nM in assay [2].

As to `NC(=O)Nc1cc(F)ccc1SC1=NN2CNC(=O)C(c3c(Cl)cccc3Cl)=C2C=C1` [Compound 128], the IC50 was ≥ 1000 nM at activated p38, ≥ 500 nM in assay [1] and ≥ 500 nM in assay [2].

For the compound `O=C1NCN2N=C(Sc3ccccc3)C=CC2=C1c1c(F)cccc1F` [Compound 130], the results for the 50% inhibitory concentration (IC50) (on activated p38; in assay [1]; in assay [2]) were ≤ 100 nM, 100 to 500 nM and ≥ 500 nM, respectively.

As for `Cc1cc(F)ccc1SC1=NN2CNC(=O)C(c3c(Cl)cccc3Cl)=C2C=C1` [Compound 131], the IC50 (at activated p38; in assay [1]; in assay [2]) was ≤ 100 nM each time.

Consider `Nc1ccc(F)c(C2=C3C=CC(Sc4ccc(F)cc4)=NN3CNC2=O)c1Cl` [Compound 132], for which the half-inhibitory concentration (IC50) against activated p38 was ≤ 100 nM; in assay [1] it was ≤ 100 nM; in assay [2] it was 100 to 500 nM.

On to `Cc1cc(SC2=NN3CNC(=O)C(c4c(Cl)cccc4Cl)=C3C=C2)c(Cl)cc1F` [Compound 133], for which the IC50 (on activated p38; in assay [1]; in assay [2]) was ≤ 100 nM each time.

Take `COc1cc(Cl)c(C2=C3C=CC(Sc4ccc(F)cc4)=NN3CNC2=O)cc1OC` [Compound 134]: the figures for the IC50 (on activated p38; in assay [1]; in assay [2]) were ≤ 100 nM, 100 to 500 nM and ≥ 500 nM, respectively.

`Cc1cc(Cl)ccc1Sc1ccc(C(C(N)=O)c2c(Cl)cccc2Cl)nn1` (stereo not drawn) [Compound 206]: the IC50 on activated p38 was 100 to 1000 nM; in assay [1], ≥ 500 nM; in assay [2], ≥ 500 nM.

Turning to `NC(=O)C(c1cccc(-c2ccc(Cl)cc2)n1)c1c(Cl)cccc1Cl` (stereo not drawn) [Compound 310], the half-maximal inhibitory concentration (IC50) against activated p38 is 100 to 1000 nM; in assay [1], ≥ 500 nM; in assay [2], ≥ 500 nM.

For the compound `Cc1ccc(-c2cccc(C(C(N)=O)c3c(Cl)cccc3Cl)n2)cc1` (stereo not drawn) [Compound 311], the half-maximal inhibitory concentration (IC50) against activated p38 is 100 to 1000 nM; in assay [1] it was ≥ 500 nM; in assay [2], ≥ 500 nM.

Take `NC(=O)C(c1cccc(-c2ccc(F)c(Cl)c2)n1)c1c(Cl)cccc1Cl` (stereo not drawn) [Compound 313]: the results for the half-maximal inhibitory concentration (IC50) (against activated p38; in assay [1]; in assay [2]) were 100 to 1000 nM, ≥ 500 nM and ≥ 500 nM, respectively.

For the compound `NC(=O)C(c1cccc(-c2cccs2)n1)c1c(Cl)cccc1Cl` (stereo not drawn) [Compound 317], the IC50 against activated p38 was ≥ 1000 nM; in assay [1], ≥ 500 nM; in assay [2] it was ≥ 500 nM.

Regarding `NC(=O)C(c1cccc(-c2cccc(Cl)c2)n1)c1c(Cl)cccc1Cl` (stereo not drawn) [Compound 320], the IC50 against activated p38 is ≤ 100 nM; in assay [1], 100 to 500 nM; in assay [2] it was 100 to 500 nM.

Take `COc1cccc(-c2cccc(C(C(N)=O)c3c(Cl)cccc3Cl)n2)c1` (stereo not drawn) [Compound 322]: the half-inhibitory concentration (IC50) against activated p38 is 100 to 1000 nM; in assay [1], ≥ 500 nM; in assay [2], ≥ 500 nM.

As for `NC(=O)C(c1cccc(-c2cccc(F)c2)n1)c1c(Cl)cccc1Cl` (stereo not drawn) [Compound 323], the concentration for half-maximal inhibition (IC50) against activated p38 was 100 to 1000 nM; in assay [1], 100 to 500 nM; in assay [2], 100 to 500 nM.

The values are drawn from US7205305B2, “Inhibitors of p38” (Vertex Pharmaceuticals Incorporated, priority 1996, dated 2007).
